Columns and labels:
[1] = system: acuR; experiment: acuR-based 3HP biosensor induction (indirect, via acrylate); assay type: cell-based, Rhodobacter sphaeroides; settings: acrylate; no helper plasmid
Method: Metab Eng, 16, 130-139 hereby incorporated by reference in its entirety). All three reactions are useful for a prpR-based biosensor, but for the acuR-based biosensor, accumulation of acrylyl-CoA rather than propionyl-CoA is necessary. […] Accordingly, the domain responsible for conversion of acrylyl-CoA to propionyl-CoA was removed while preserving the activity of the other two domains. […] A 90-fold increase in fluorescence was obtained when the acuR-based biosensor was induced with 10 mM 3HP. […] Fluorescence remained at background levels for greater than 16 hours in the absence of pcs^Δ3 and ach (see FIG. 17).
Plasmids were constructed using Gibson isothermal assembly methods (see Gibson, D. G., Young, L., Chuang, R. Y., Venter, J. C., Hutchison, C. A., 3rd and Smith, H. O. (2009) Enzymatic assembly of DNA molecules up to several hundred kilobases. Nat Methods, 6, 343-345 hereby incorporated by reference in its entirety) and cloned into DH5α electrocompetent cells purchased from New England Biolabs. Biosynthesis of product molecules was carried out in either BL21 (DE3) or DH5α. The prpR-based 3HP biosensor was implemented as a two-plasmid system. The first plasmid is pPro24-GFP (Addgene plasmid #18880), which expresses GFPuv under the control of the methyl-citrate responsive transcription factor, prpR, on a pBR322 origin of replication providing β-lactam resistance. […]

[2] = system: E. coli DH5α cells; experiment: Toxicity of inducer chemicals (growth)
Method: Growth rate was measured for each combination of chemical and concentration during the exponential phase of growth. Rates were normalized to the growth rate of cells without any added chemical and plotted as bar height. Concentration of each inducer is indicated in the table, corresponding to the bar chart by order and color. […] Inducer concentrations mirror the concentrations used in the induction experiments.
150 μl of cells were transferred into 96-well plates and the assayed chemical was immediately added in triplicate before further incubation at 600 RPM and 37° C.
Toxicity of the inducer chemicals was measured to help guide the choice of inducer concentration for biosensor applications. In applications where maximum protein production is the goal, toxicity will be less of a consideration. In contrast, sub-toxic induction is important for complex circuits that require the cell to maintain a healthy cell state.

[3] = target: T1, AcuR (Rhodobacter sphaeroides), regulator sequence SEQ ID NO: 9 (Cereibacter sphaeroides, UniProt Q3J6K8); experiment: AcuR biosensor induction (sfGFP reporter, Hill fit); assay type: cell-based; settings: acrylate
T1 construct: expressed in transfected cells; host or cells: E. coli DH5alpha transformed with pJKR-H (high copy) or pJKR-L (low copy) plasmid
T1 sequence (Q3J6K8 1-219): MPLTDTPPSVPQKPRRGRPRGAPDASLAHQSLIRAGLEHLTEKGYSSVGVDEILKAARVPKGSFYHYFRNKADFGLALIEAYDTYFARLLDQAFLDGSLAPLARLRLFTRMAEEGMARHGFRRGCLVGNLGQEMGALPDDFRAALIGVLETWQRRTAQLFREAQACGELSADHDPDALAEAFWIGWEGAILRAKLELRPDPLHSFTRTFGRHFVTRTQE
Text: Plasmids were constructed using Gibson isothermal assembly methods (see Gibson, D. G., Young, L., Chuang, R. Y., Venter, J. C., Hutchison, C. A., 3rd and Smith, H. O. (2009) Enzymatic assembly of DNA molecules up to several hundred kilobases. Nat Methods, 6, 343-345 incorporated herein by reference in its entirety) and transformed into DH5α electrocompetent cells (New England Biolabs, Ipswich Mass.). […] Each inducible system was implemented on high and low copy plasmids. High copy pJKR-H plasmids were constructed with the pUC origin and beta lactamase antibiotic resistance marker derived from pUC19 (New England Biolabs, Ipswich Mass.). Low copy pJKR-L plasmids were constructed in the same way, except that the pUC origin was replaced by the SC101 origin (including repA) from pSC101 obtained from American Type Culture Collection (ATCC #37032). […] In both these plasmids the antibiotic resistance gene and origin of replication were replaced with p15a-aadA and colA-kanR. Each enzyme was cloned downstream of the constitutive promoter P2 (see Mutalik, V. K., Guimaraes, J. C., Cambray, G., Lam, C., Christoffersen, M. J., Mai, Q. A., Tran, A. B., Paull, M., Keasling, J. D., Arkin, A. P. et al. (2013) Precise and reliable gene expression via standard transcription and translation initiation elements. Nat Methods, 10, 354-360 hereby incorporated by reference in its entirety) and g10 RBS to create pJKR-MIOX variants. These expression plasmids used the colA origin of replication and kanamycin resistance gene for maintenance. Sequences and plasmids are available on Addgene (plasmid numbers 62557-62570).
DH5α cells transformed with pJKR plasmids and maintained with carbenicillin were used in the induction assays. For each induction evaluation experiment, the cells were grown overnight to saturation before being diluted 1:100 into fresh LB media and incubated at 200 RPM and 37° C. […] Measurements were made on the same Biotek (Winooksi, Vt.) HT plate reader using the same settings: excitation 485/20, emission 528/20, 37° C. and fast shaking. Fluorescence and absorbance were measured every 10 minutes for 15 hours. Fluorescence was measured in arbitrary units (AFU) while optical density was determined by absorbance (OD). Normalized fluorescence was determined by dividing fluorescence by optical density for a given measurement. […]
The ratio of fluorescence to absorbance at 600 nm was used in order to compensate for changes in cell density over time and between experiments (AFU/OD). […] This transfer function is plotted on a log-log scale in FIG. 1A and FIG. 1B to capture the wide range of inducer concentrations and resulting fluorescence values. […]

[4] = target: T2, TtgR (Pseudomonas putida), regulator sequence SEQ ID NO: 14 (Pseudomonas putida, UniProt Q9AIU0); settings: no test described; cited from earlier work
T2 construct: expressed in transfected cells; host or cells: E. coli DH5alpha transformed with pJKR-H (high copy) or pJKR-L (low copy) plasmid

Compound | Response of acrylate biosensor without helper plasmid [1] | Toxicity in induction experiment ([2]; 10 mM acrylate) | Toxicity ([2]; acrylate 5 mM and 10 mM) | Hill Coefficient ([3]; high copy) | Max Expression Velocity ([3]; high copy) | Hill Coefficient ([3]; low copy) | Max Expression Velocity ([3]; low copy) | Activation of TtgR by chloramphenicol [4]
C=CC(=O)O [Acrylate, acrylate] | respond to acrylate | high toxicity | substantial toxicity | 3.2 ± 0.3 | 910 ± 40 s⁻¹ | 1.3 ± 0.1 | 150 ± 10 s⁻¹ | –
O=C(N[C@H](CO)[C@H](O)c1ccc([N+](=O)[O-])cc1)C(Cl)Cl [Chloramphenicol, chloramphenicol] | – | – | – | – | – | – | – | activation

From patent US11365410B2, “Production and monitoring of metabolites in cells” (President and Fellows of Harvard College, priority 2015, dated 2022)
